Test results as given in patent US5719151A, “Substituted benzene compounds” (priority 1990, dated 1998).

Experiments:
[1] = molecular target: T1, poly(ADP-ribose)polymerase (Homo sapiens, UniProt P09874); assay: Determination of inhibitory effect on poly(ADP-ribose)polymerase (enzyme activity, Ki, Km); assay type: biochemical; conditions: for Ki: poly(ADP-ribose)polymerase, read-out: Ki (Inhibition Constant); for inhibition at 5 µM / inhibition at 1 µM / inhibition at 2.5 µM: read-out: Inhibitor Activity (%)
Description: The enzyme activity was assayed by standard procedures (Murray, B. et al., Mutation Research (1986) 165:191-198). This reference also describes the estimation of the Km (Michaelis Constant) values. The estimation of the Ki (inhibitory constant) values was performed by calculating the Km value in the presence or absence of known concentrations of the enzyme inhibitor. Standard biochemical calculations were then used to calculate the Ki value. The smaller K1 values indicate stronger inhibition. The degree of enzyme inhibition shown in the Table was estimated by measuring the enzyme activity in the presence and absence of the indicated concentrations of inhibitor.

[2] = tested on: nuclear poly(ADP-Ribose)polymerase; conditions: Oikawa 1980; Lindahl-Kiessling & Shall 1987; cited from earlier work
[3] = molecular target: T1, poly(ADP-ribose)polymerase; conditions: Farzeneh 1988, cited from earlier work
[4] = molecular target: T1, poly(ADP-ribose)polymerase; assay: Formation of covalent compounds (with the enzyme); assay type: biochemical; conditions: for covalent compound with the enzyme: specific covalent inhibition
[5] = tested on: Trypanosoma brucei rhodesiense; assay: Growth of Trypanosoma brucei rhodesiense in axenic culture (growth inhibition); assay type: cell-based
Description: 1. TRYPANOSOMES: Stabilates of two clones, GUP 2889 and GUP 2814 were used.
Prior to propagation in vitro cell free culture conditions the parasites from stabilates were expanded in CD1 (8-9 week old) female mice. Infected mouse blood obtained by cardiac puncture in EMEM* with 20 U/ml heparin was used for the preparation of blood smears for immunofluorescence analysis.
Antibody mediated lysis of a specific VAT of bloodstream form trypanosomes was performed by incubating an appropriate aliquot of a recently prepared trypanosome suspension at room temperature for 1 hour, in appropriately diluted specific antibody and guinea pig complement. The trypanosomes were observed and counted with inverted phase-contrast microscopy at a magnification of 150× to check for viability and to observe lysed trypanosomes, which appeared stumpy and vacuolated.
Cultures were initiated with aliquots of the above prepared trypanosome suspension. Duplicate T25 flasks, with 10 ml of medium were prepared for each experimental parameter examined. In each experiment the trypanosome density was determined at the initiation of the culture and at the end of the axenic culture period (usually after 18-24 hours) using a Neubaurer haemocytometer.
The instantaneous rate of switching/cell/generation, σi, has been calculated. These values of σ are estimates of the per capita rate for switching to minor VATs. However, these estimates have been made in populations manipulated to consist of a major VAT, the prevalence of which is much higher than that of minor VATs; switching from minor to major VATs has therefore been assumed to be negligible, as has interswitching between minor VATs. Growth rates, r, have been expressed as population doubling times Td, where Td=loge2/r. Switching rates values are presented in the tables as finite, of, rate estimates.
Two clones of Trypanosoma brucei rhodesiense, GUP 2889 and […] were initiated in culture with viable trypanosomes after in vitro trypanolysis of heterotype VAT 1.22 with GUPM 27.1 monoclonal antibody. Viable populations of these trypanosomes were incubated with various concentrations of the poly(ADP-Ribose)polymerase inhibitors. The effect of each concentration of inhibitor was tested in duplicate in T25 culture flasks set up for the axenic culture inhibition experiments. Growth was monitored after 24 hours of incubation at 37° C. in 4-5% CO2 in air. Relative growth inhibition and frequency of antigenic switching of were calculated.
In this assay a continuously growing bloodstream form trypanosome population was incubated in serial inhibitor dilutions in T25 culture flasks using an inoculum of 2×10^4 ·1×10^5 trypanosomes per ml. After an incubation period of 24-48 hours in axenic culture at 37° C. in a 4-5% CO2 incubator, trypanosomes were counted using a haemocytometer and growth inhibition was determined based on the number of generations (kt) of inhibitor treated cultures compared to controls. […] Growth is reduced by up to 17% when 3-N-formylluminol(3-N-FL) is present in the concentration range of 50-400 μM, Table 7.

[6] = molecular target: T1, poly(ADP-ribose)polymerase; conditions: X-ray or bleomycin exposure; cited from earlier work
[7] = tested on: NC(=O)c1ccc[n+]([C@@H]2O[C@H](COP(=O)([O-])OP(=O)(O)OC[C@H]3O[C@@H](n4cnc5c(N)ncnc54)[C@H](O)[C@@H]3O)[C@@H](O)[C@H]2O)c1; assay: Determination of inhibitory effect on poly(ADP-ribose)polymerase (enzyme activity, Ki, Km); assay type: biochemical; conditions: other: same assay as Table 5

T1 sequence (P09874 whole entry): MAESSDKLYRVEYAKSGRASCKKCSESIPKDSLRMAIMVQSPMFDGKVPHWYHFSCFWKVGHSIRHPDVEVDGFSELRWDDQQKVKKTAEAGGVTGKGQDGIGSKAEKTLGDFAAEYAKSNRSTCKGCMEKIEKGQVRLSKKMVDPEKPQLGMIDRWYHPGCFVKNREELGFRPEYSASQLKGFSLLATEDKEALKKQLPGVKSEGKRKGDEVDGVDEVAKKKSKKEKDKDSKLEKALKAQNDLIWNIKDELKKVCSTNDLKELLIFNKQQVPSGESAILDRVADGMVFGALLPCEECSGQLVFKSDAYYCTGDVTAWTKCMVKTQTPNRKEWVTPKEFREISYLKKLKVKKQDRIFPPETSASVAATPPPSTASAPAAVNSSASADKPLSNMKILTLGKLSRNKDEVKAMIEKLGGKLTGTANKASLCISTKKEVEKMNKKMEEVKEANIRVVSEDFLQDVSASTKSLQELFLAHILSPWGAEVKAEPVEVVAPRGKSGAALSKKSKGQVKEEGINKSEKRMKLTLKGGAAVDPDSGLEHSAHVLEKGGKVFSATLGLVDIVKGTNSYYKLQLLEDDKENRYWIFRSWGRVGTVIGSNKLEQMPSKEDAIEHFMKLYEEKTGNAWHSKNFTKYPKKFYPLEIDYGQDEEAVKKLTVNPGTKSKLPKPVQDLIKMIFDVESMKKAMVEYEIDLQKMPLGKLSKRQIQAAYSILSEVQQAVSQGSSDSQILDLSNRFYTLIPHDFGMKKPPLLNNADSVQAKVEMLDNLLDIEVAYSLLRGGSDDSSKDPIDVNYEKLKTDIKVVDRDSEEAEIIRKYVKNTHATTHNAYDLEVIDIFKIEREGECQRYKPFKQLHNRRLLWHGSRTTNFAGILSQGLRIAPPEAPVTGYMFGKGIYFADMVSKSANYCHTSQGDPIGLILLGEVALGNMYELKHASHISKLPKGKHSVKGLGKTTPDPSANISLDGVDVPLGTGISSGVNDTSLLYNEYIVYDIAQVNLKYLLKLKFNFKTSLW

Molecule: CC(=O)Nc1cccc(C(N)=O)c1 [3-acetylaminobenzamide, reference compound]
- Ki [1]: 3.2 ± 0.41 µM

Molecule: NC(=O)c1cccc(N)c1 [3-aminobenzamide]
- spontaneous sister chromatid exchanges [2]: large increase in spontaneous sister chromatid exchanges

Molecule: COc1cccc(C(N)=O)c1 [3-methoxybenzamide]
- integration of foreign DNA into the genome ([3]; non-homologous/illegitimate DNA recombination): blocked the integration of foreign DNA into the genome
- uptake and expression of foreign DNA ([3]; introduced via plasmids): not affected

Molecule: CCC(=O)Nc1cccc(C(N)=O)c1 [3-propionylaminobenzamide, reference compound]
- Ki [1]: 2.49 ± 0.3 µM

Molecule: C=CC(=O)Nc1cccc(C(N)=O)c1 [Compound 4, 3-propenoylaminobenzamide]
- covalent compound with the enzyme [4]: act by forming a covalent compound with the enzyme specifically and thus inhibit the enzyme

Molecule: NC(=O)c1cccc(NC(=O)CCCl)c1 [Compound 7]
- covalent compound with the enzyme [4]: act by forming a covalent compound with the enzyme specifically and thus inhibit the enzyme

Molecule: NC(=O)Nc1cccc(C(N)=O)c1 [Compound 8, 3-ureidobenzamide]
- inhibition at 5 µM [1]: 61%

Molecule: CNC(=O)Nc1cccc(C(N)=O)c1 [Compound 9, 3-methylureidobenzamide]
- inhibition at 5 µM [1]: 61%

Molecule: C=CC(=O)Nc1cccc(C(=O)O)c1 [Compound 12, 3-propenoylaminobenzoic acid]
- ability to form covalent compounds [4]: form covalent compounds
- enzyme inhibition (in words) [1]: not enzyme inhibitors

Molecule: NC(=O)c1cccc(NC(=O)CCl)c1 [Compound 14, 3-chloroacetylaminobenzamide]
- covalent compound with the enzyme [4]: act by forming a covalent compound with the enzyme specifically and thus inhibit the enzyme

Molecule: NC(=O)c1cccc(NC(=O)CBr)c1 [Compound 15, 3-bromoacetylaminobenzamide]
- covalent compound with the enzyme [4]: act by forming a covalent compound with the enzyme specifically and thus inhibit the enzyme

Molecule: NC(=O)c1cccc(NC(=O)CCBr)c1 [Compound 16]
- covalent compound with the enzyme [4]: act by forming a covalent compound with the enzyme specifically and thus inhibit the enzyme

Molecule: CN(N=O)C(=O)Nc1cccc(C(N)=O)c1 [Compound 19, 3(N-methyl,N-nitroso ureido)benzamide]
- covalent compound with the enzyme [4]: act by forming a covalent compound with the enzyme specifically and thus inhibit the enzyme

Molecule: CN(N=O)C(=O)Nc1ccc(C(N)=O)cc1 [Compound 20, 4(N-methyl,N-nitroso ureido)benzamide]
- ability to form covalent compounds [4]: form covalent compounds
- enzyme inhibition (in words) [1]: not enzyme inhibitors

Molecule: CCOC(=O)c1cccc(NC(=O)N(C)N=O)c1 [Compound 21, Ethyl,3-(N-methyl,N-nitrosoureido)benzoate]
- ability to form covalent compounds [4]: form covalent compounds
- enzyme inhibition (in words) [1]: not enzyme inhibitors

Molecule: O=CNc1cccc2c(=O)[nH][nH]c(=O)c12 [Compound 22, 5-formylamino-2,3-dihydro-1,4-phthalazinedione]
- growth reduced by up to ([5]; 50-400 μM): up to 17%
- activity at 50 µM ([5]; Trypanosoma brucei, RHODESIENSE, 50 μM, n = 8, control 1.00, read-out: Relative Growth Rate (S.D., n)): 121 ± 13%
- activity at 100 µM ([5]; Trypanosoma brucei, RHODESIENSE, 100 μM, n = 8, control 1.00, read-out: Relative Growth Rate (S.D., n)): 91 ± 22%
- activity at 250 µM ([5]; Trypanosoma brucei, RHODESIENSE, 250 μM, n = 8, control 1.00, read-out: Relative Growth Rate (S.D., n)): 83 ± 42%
- activity at 400 µM ([5]; Trypanosoma brucei, RHODESIENSE, 400 μM, n = 4, control 1.00, read-out: Relative Growth Rate (S.D., n)): 85 ± 4%
- inhibition at 1 µM [1]: 54%
- inhibition at 2.5 µM [1]: 71%
- Ki [1]: 0.518 ± 0.04 µM

Molecule: N=C(N)Nc1cccc(C(N)=O)c1 [Compound 26, 3-(guanidino)benzamide]
- inhibition at 5 µM [1]: 32%

Molecule: O=c1[nH]nc(O)c2cccc(O)c12 [Compound 27, 1,5-dihydroxy-3-hydro-4-phthalazinone]
- inhibition at 1 µM [1]: 47%
- inhibition at 2.5 µM [1]: 71%
- inhibition at 5 µM [1]: 82%

Molecule: NC(=O)c1cccnc1 [nicotinamide]
- recovery of the damaged cells [6]: inhibit recovery of the damaged cells

Molecule: poly(ADP-ribose)polymerase (Homo sapiens)
- Km [7]: 100 ± 13.7 µM
